{"source": "patent US11395821B2", "about": "“Treatment of EGFR-driven cancer with fewer side effects” (G1 Therapeutics, Inc., priority 2017, dated 2022)", "key": {"[1]": {"tested_on": "H1975 (EGFR^L858R/T790M NSCLC Model)", "assay": "Example 1: Compound IV + afatinib in H1975 tumor bearing mice", "format": "in vivo", "settings": "Compound IV 50 or 100 mg/kg in combination with afatinib 20 mg/kg, daily, 18 days", "protocol": "The x-axis is days of treatment measured in time and the y-axis is tumor volume measured in mm^3.\nCompound IV in combination with the EGFR-TKI afatinib was tested in an EGFR^L858R/T790M NSCLC model. The combination of Compound IV in dosages of 50 mg/kg and 100 mg/kg+afatinib was tested and compared to treatment regimens consisting of only Compound IV (in 50 mg/kg dose or a 100 mg/kg) or afatinib (20 mg/kg). H1975 (EGFR^L858R/T790M NSCLC Model) tumor bearing mice were treated daily. Tumors were measured twice a week until vehicle treated mice tumors reached about 1000 mm^3 (18 days). Data is plotted to compare tumor growth in each cohort during the 18 days of treatment."}, "[2]": {"tested_on": "H1975 (EGFR^L858R/T790M NSCLC Model)", "assay": "Example 3: Compound IV added to afatinib after resistance in H1975 tumor bearing mice", "format": "in vivo", "protocol": "EGFRL858R/T790M NSCLC model (H1975) tumor bearing mice were treated with daily oral doses of vehicle or afatinib (20 mg/kg). Once tumors became resistant to afatinib (˜D18), Compound IV (100 mg/kg) was added to the treatment regimen. Tumors were measured […]. Data is plotted to compare tumor growth in each cohort during the treatment. The x-axis is days of treatment measured in time and the y-axis is tumor volume measured in mm^3.\nCompound IV in combination with the EGFR-TKI afatinib was tested in an EGFR^L858R/T790M NSCLC model to determine the ability of the combination to reverse afatinib resistance. H1975 (EGFR^L858R/T790M NSCLC Model) tumor bearing mice were treated daily with 20 mg/kg of afatinib. Once tumors became resistant to afatinib (about D18), Compound IV (100 mg/kg) was added to the treatment regimen. Tumors were measured twice a week for 40 days. Data is plotted to compare tumor growth in each cohort during treatment."}}, "note": "Entries after “also recorded” stand apart in the source; their conditions may differ.", "data": [{"smiles": "CC(C)N1CCN(c2ccc(Nc3ncc4cc5n(c4n3)C3(CCCCC3)CNC5=O)nc2)CC1", "note": "[Compound IV]", "values": [{"measurement": "afatinib efficacy and time to resistance (tumor volume)", "setting": "[1]", "value": "increased the afatinib efficacy and extended the time to resistance; also recorded: increases EGFR-TKI efficacy and extends time to resistance"}, {"measurement": "decrease of tumor volume, combination vs Compound IV alone and afatinib alone", "setting": "[1]", "value": "more effective at decreasing tumor volume"}, {"measurement": "acquired resistance to afatinib (tumor volume)", "setting": "[2]; afatinib 20 mg/kg daily, Compound IV 100 mg/kg added at about D18, 40 days", "value": "reverses acquired resistance to afatinib"}, {"measurement": "decrease of tumor volume, combination vs Compound IV alone and afatinib alone", "setting": "[2]; as worded in Example 3", "value": "more effective at decreasing tumor volume"}, {"measurement": "afatinib efficacy and time to resistance (tumor volume)", "setting": "[2]; as worded in Example 3: Compound IV 50 or 100 mg/kg in combination with afatinib", "value": "increased the afatinib efficacy and extended the time to resistance"}]}]}
